Reference: ChEMBL document CHEMBL2169853, “Discovery and in vivo evaluation of dual PI3Kβ/δ inhibitors” (J Med Chem, 2012)
≈ marks a conversion by molar mass, not a printed value.

How the values were obtained:
[1] = biological target: Phosphatidylinositol 4,5-bisphosphate 3-kinase catalytic subunit gamma isoform (Homo sapiens, UniProt P48736)
Description: Inhibition of PI3Kgamma by ATP bioluminescence assay

[2] = biological target: T1, Phosphatidylinositol 4,5-bisphosphate 3-kinase catalytic subunit beta isoform (Homo sapiens, UniProt P42338)
Description: Inhibition of PI3Kbeta using phosphatidylinositol-4,5-bisphosphate by ATP bioluminescence assay

[3] = biological target: T1, Phosphatidylinositol 4,5-bisphosphate 3-kinase catalytic subunit beta isoform; remark: listed apart in the source
Description: Inhibition of PI3Kbeta-mediated AKT Ser473 phosphorylation in human MDA-MB-468 cells after 120 mins by meso scale discover assay

in vitro [4] = settings: human, liver microsomes
Description: Drug metabolism in human liver microsomes at 1 uM after 30 mins

physchem [5] = settings: phosphate buffered saline, pH 7.4
Description: Solubility of the compound in phosphate buffered saline at pH 7.4

physchem [6] = settings: buffer, pH 7.4
Description: Lipophilicity, log D of the compound at pH 7.4

[7] = biological target: T2, PXR (nuclear receptor subfamily 1 group I member 2) (Homo sapiens, UniProt O75469); assay: in vitro
T2 sequence (O75469 whole entry): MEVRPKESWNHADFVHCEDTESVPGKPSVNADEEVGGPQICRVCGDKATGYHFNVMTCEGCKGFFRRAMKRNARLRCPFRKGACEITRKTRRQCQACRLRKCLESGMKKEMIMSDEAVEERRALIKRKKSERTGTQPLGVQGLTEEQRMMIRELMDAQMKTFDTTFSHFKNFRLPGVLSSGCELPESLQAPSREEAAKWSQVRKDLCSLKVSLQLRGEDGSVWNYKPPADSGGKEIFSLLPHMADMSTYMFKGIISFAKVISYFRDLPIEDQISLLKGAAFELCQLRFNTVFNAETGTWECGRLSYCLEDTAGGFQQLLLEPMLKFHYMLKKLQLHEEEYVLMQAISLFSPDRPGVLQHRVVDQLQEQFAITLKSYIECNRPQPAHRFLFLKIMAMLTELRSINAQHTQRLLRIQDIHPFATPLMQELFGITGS
Description: Inhibition of human PXR assessed as activity remaining at 2 uM relative to rifampicin

in vitro [8] = settings: rat, liver microsomes
Description: Drug metabolism in rat liver microsomes at 1 uM after 30 mins

[9] = biological target: T3, Phosphatidylinositol 4,5-bisphosphate 3-kinase catalytic subunit delta isoform (Homo sapiens, UniProt O00329)
T3 sequence (O00329 whole entry): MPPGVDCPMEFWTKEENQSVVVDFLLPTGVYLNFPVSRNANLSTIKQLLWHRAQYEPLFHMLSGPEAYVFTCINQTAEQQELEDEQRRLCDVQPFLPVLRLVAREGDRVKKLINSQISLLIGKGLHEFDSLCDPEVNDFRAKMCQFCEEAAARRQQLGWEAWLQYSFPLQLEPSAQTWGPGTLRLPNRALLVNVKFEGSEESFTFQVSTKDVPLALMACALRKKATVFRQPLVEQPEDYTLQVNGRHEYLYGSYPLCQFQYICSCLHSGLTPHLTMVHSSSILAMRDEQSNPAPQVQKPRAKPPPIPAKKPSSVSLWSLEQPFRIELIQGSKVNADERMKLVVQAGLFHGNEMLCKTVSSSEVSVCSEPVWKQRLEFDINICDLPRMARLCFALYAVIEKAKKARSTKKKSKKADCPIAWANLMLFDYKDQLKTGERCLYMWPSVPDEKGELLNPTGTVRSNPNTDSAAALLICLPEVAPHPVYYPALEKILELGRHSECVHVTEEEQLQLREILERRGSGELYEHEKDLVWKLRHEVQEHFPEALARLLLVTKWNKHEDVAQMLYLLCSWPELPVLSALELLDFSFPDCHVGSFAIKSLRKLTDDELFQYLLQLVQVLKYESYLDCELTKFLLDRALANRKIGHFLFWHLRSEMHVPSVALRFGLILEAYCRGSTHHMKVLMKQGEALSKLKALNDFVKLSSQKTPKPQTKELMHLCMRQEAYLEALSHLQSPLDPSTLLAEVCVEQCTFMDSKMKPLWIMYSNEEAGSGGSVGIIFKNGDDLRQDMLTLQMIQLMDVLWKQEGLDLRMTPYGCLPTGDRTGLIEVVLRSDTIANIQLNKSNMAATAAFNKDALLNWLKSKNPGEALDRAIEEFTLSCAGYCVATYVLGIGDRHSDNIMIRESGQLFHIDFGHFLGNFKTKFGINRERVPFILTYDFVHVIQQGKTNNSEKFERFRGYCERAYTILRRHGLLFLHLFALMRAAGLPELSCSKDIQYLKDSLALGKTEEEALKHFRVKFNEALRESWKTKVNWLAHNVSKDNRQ
Description: Inhibition of PI3Kdelta using phosphatidylinositol-4,5-bisphosphate by ATP bioluminescence assay

[10] = biological target: Phosphatidylinositol 4,5-bisphosphate 3-kinase catalytic subunit alpha isoform (Homo sapiens, UniProt P42336)
Chain of Phosphatidylinositol 4,5-bisphosphate 3-kinase catalytic subunit alpha isoform (P42336 whole entry, canonical isoform): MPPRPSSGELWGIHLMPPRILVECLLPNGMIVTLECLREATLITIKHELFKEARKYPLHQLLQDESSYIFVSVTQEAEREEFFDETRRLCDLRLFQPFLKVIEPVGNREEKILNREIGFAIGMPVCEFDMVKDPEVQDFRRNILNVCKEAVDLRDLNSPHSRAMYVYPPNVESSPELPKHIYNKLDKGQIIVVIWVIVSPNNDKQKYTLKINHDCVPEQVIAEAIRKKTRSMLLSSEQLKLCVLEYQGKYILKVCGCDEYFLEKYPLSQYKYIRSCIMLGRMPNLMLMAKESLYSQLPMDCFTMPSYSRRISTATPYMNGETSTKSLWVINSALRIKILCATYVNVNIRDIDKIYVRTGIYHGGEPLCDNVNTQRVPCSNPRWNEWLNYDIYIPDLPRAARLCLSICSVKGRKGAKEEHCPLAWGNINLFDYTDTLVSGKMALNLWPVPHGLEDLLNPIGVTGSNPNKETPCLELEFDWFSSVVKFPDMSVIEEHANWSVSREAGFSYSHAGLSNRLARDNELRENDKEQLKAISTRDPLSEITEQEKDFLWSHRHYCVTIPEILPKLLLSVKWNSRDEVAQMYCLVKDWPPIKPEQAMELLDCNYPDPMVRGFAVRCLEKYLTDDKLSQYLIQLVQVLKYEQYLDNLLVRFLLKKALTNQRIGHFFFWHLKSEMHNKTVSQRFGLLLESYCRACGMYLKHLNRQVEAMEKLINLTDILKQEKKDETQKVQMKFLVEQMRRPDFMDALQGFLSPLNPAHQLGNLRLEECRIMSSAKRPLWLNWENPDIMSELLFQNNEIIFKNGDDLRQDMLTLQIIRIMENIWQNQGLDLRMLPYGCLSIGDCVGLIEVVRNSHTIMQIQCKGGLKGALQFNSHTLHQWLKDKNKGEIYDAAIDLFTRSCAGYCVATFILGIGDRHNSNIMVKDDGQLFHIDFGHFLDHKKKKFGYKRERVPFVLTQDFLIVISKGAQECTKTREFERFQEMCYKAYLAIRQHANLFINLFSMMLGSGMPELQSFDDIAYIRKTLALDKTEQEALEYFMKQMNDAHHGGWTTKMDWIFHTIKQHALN
Description: Inhibition of PI3Kalpha by ATP bioluminescence assay

in vivo [11] = settings: Sprague-Dawley, rat, iv, 0.5 mg/kg
Description: Half life in Sprague-Dawley rat at 0.5 mg/kg, iv

in vivo [12] = settings: Sprague-Dawley, rat, iv, 0.5 mg/kg; remark: listed apart in the source
Description: Volume of distribution at steady state in Sprague-Dawley rat at 0.5 mg/kg, iv

in vivo [13] = settings: Sprague-Dawley, rat, iv, 0.5 mg/kg; remark: listed apart in the source
Description: Clearance in Sprague-Dawley rat at 0.5 mg/kg, iv

in vivo [14] = settings: Sprague-Dawley, rat, po, 2 mg/kg
in vivo [15] = settings: Sprague-Dawley, rat, plasma, po, 2 mg/kg

Chain of Phosphatidylinositol 4,5-bisphosphate 3-kinase catalytic subunit gamma isoform (P48736 whole entry, canonical isoform): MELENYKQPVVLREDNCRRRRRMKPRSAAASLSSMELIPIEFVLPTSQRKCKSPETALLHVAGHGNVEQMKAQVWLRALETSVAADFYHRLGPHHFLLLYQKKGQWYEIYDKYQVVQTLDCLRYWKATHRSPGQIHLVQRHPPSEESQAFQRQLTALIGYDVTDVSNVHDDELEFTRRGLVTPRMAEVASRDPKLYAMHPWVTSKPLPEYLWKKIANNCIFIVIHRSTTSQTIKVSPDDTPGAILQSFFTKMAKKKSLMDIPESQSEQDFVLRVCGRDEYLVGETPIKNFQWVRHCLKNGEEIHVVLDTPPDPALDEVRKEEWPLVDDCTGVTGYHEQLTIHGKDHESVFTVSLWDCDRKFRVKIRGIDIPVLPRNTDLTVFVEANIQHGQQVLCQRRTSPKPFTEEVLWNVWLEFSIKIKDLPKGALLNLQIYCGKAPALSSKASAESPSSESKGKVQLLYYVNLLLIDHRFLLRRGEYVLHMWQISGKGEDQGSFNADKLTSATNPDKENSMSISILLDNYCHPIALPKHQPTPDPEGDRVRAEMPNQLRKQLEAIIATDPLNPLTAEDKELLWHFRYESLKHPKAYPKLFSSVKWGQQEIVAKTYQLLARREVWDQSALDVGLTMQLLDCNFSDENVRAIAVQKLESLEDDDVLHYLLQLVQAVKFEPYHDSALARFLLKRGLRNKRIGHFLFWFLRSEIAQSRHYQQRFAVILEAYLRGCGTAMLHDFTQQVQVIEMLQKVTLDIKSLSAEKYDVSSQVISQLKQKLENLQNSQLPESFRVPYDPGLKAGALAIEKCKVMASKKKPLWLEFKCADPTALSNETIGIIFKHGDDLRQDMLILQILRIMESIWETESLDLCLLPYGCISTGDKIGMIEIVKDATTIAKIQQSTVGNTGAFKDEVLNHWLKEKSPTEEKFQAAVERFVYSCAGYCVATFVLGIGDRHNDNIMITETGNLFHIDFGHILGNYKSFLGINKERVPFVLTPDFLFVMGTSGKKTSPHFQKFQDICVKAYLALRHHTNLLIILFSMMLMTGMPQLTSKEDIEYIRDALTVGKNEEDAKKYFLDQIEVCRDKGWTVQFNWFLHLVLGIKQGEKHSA
T1 sequence (P42338 whole entry, canonical isoform): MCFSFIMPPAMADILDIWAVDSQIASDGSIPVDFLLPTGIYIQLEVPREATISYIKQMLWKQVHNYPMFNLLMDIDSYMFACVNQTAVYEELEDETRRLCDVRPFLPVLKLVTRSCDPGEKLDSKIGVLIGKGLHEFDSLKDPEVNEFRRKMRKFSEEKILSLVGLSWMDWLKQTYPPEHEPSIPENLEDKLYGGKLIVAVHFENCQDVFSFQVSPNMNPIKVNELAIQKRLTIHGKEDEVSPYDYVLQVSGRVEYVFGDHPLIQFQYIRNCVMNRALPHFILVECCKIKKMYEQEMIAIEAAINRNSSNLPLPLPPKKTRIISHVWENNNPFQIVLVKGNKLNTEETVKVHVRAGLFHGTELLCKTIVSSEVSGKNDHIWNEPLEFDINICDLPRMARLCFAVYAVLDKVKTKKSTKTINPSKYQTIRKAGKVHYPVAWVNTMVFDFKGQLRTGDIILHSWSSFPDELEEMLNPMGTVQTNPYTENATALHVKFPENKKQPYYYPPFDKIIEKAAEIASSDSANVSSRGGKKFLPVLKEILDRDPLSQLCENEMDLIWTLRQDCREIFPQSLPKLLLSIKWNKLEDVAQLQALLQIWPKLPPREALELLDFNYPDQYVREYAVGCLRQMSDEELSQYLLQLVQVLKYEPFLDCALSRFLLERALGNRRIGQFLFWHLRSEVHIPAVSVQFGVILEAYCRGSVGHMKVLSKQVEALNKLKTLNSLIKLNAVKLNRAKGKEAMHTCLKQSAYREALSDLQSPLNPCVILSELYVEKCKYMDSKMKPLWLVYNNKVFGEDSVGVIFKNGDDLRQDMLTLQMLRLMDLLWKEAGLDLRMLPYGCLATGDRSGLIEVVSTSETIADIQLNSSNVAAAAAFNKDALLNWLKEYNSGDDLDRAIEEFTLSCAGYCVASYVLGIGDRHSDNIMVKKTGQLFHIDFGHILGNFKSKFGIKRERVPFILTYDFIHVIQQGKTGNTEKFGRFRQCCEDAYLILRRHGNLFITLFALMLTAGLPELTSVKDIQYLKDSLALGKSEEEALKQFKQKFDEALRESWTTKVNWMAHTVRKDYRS

Row | Compound | IC50 [2] [nM] | metabolised at 0.5 h, 1 µM (in vitro [4]) [%] | solubility (physchem [5]) [µg/mL] | activity at 2 µM [7] [%] | metabolised at 0.5 h, 1 µM (in vitro [8]) [%] | IC50 [9] [nM] | Ki [1] [nM] | Ki [2] [nM] | further results
1 | Cc1c(-c2ccccn2)nc2cc(F)ccc2c1N1CC(C)(C)c2ccc(N3CCOCC3)cc21 | 58 | 40 | 7.4 (≈ 15.8 µM) | 106 | 34 | – | – | – | IC50 [1]: 2010 nM; IC50 [3]: 53 nM; logD (physchem [6]): 4.5
2 | Cc1c(-c2ccccn2)nc2cccc(F)c2c1N1CC(C)(C)c2ccc(N3CCOCC3)cc21 | 720 | 52 | 5.2 (≈ 11.1 µM) | 104 | 49 | 72 | – | – | –
3 | Cc1nc2ccccc2c(N2CC3(CCOCC3)c3ccc(N4CCOCC4)cc32)c1C | 54 | 70 | – | 1 | 71 | 450 | – | – | –
4 | Cc1c(-c2ccccc2)nc2ccccc2c1N1CC2(CCOCC2)c2ccc(N3CCOCC3)cc21 | 105 | 62 | 3.2 (≈ 6.51 µM) | 103 | 46 | 91 | – | – | –
5 | Cc1c(-c2ccccn2)nc2cc(F)ccc2c1N1CC2(CCOCC2)c2ccc(N3CCOCC3)cc21 | 143 | 64 | – | 22 | 13 | 64 | – | – | –
6 | Cc1c(-c2ccccn2)nc2cc(F)ccc2c1N1CC2(CS(=O)(=O)C2)c2ccc(N3CCOCC3)cc21 | – | – | – | – | – | – | 7340 | 395 | Ki [10]: > 12500 nM
7 | Cc1c(-c2ccccn2)nc2cc(F)ccc2c1N1CC(CO)(CO)c2ccc(N3CCOCC3)cc21 | – | – | – | – | – | – | 16000 | 269 | Ki [10]: > 125000 nM
8 | Cc1c(-c2ccccn2)nc2cc(F)ccc2c1N1CC(C)(C)c2ccc(-c3ccncc3)cc21 | 81 | – | – | – | – | – | – | – | IC50 [1]: 1400 nM
9 | Cc1c(-c2ccccn2)nc2cc(F)ccc2c1N1CC(C)(C)c2ccc(-c3ccnc(N)n3)cc21 | – | – | – | – | – | – | 90 | 54 | half-life (in vivo [11]): 6.1 h; Vd (in vivo [12]): 7.5 L/kg; clearance (in vivo [13]): 26.8 mL/min/kg
10 | Cc1cc(-c2ccc3c(c2)N(c2c(C)c(-c4ccccn4)nc4cc(F)ccc24)CC3(C)C)nc(N)n1 | – | – | – | – | – | – | 364 | > 125000 | Ki [10]: > 125000 nM
11 | Cc1c(-c2ccccn2)nc2cc(F)ccc2c1N1CC(C)(C)c2ncc(N3CCOCC3)cc21 | – | 47 | 11 (≈ 23.4 µM) | 22 | 28 | – | 92 | 30 | Ki [9]: 7 nM; Ki [10]: 1720 nM; IC50 [3]: 51 nM; bioavailability (in vivo [14]): 47%; AUC (in vivo [15]): 2 µM·h; half-life (in vivo [11]): 6.2 h; Vd (in vivo [12]): 5 L/kg; clearance (in vivo [13]): 16.2 mL/min/kg
12 | Cc1c(-c2ccccn2)nc2cc(F)ccc2c1N1CC(C)(C)c2ncc(-c3ccnc(N)n3)cc21 | – | 12 | 17 (≈ 35.6 µM) | 65 | 34 | – | 28 | 18 | IC50 [3]: 10 nM
13 | Cc1nc2ccccc2c(N2CC(C)(C)c3ccc(N4CCOCC4)cc32)c1C | 60 | 65 | 1 (≈ 2.58 µM) | 14 | 94 | 362 | – | – | IC50 [1]: 18000 nM; IC50 [10]: 41000 nM
14 | Cc1nc2ccc(Cl)cc2c(N2CC(C)(C)c3ccc(N4CCOCC4)cc32)c1C | 60 | 54 | 1 (≈ 2.37 µM) | 17 | 84 | – | – | – | –
15 | Cc1c(-c2ccccc2)nc2ccccc2c1N1CC(C)(C)c2ccc(N3CCOCC3)cc21 | 59 | 42 | 2.4 (≈ 5.34 µM) | 197 | 57 | 85 | – | – | –
16 | Cc1c(-c2ccccc2F)nc2ccccc2c1N1CC(C)(C)c2ccc(N3CCOCC3)cc21 | 35 | 47 | 1 (≈ 2.14 µM) | 162 | 52 | 47 | – | – | –
